The values below come from patent US20160213684A1, “SOLID DISPERSION OF A SELECTIVE MODULATOR OF THE PROGESTERONE RECEPTOR” (LABORATOIRE HRA-PHARMA, priority 2012, published 2016).

Data set [1] can be described thus: in vitro dissolution test (paddle dissolution device, hard gelatin capsule with 30 mg UPA). The format is physicochemical. Particulars: for Percentages of UPA released, expressed relative to the initial amount of UPA contained per capsule: 900 ml medium at gastric pH, 0.1% SDS, 37°C, 50 rpm, mean of 3 experiments. The procedure:
The in vitro dissolution test can be carried out using any commercially available dissolution device comprising paddles. Example 1 hereinafter presents implementing conditions for determining the in vitro dissolution rate of a solid dispersion according to the invention. Briefly, an amount of solid dispersion representing 30 mg of active ingredient is placed in a gelatin capsule. This gel capsule is then placed in 900 ml of a medium buffered at gastric pH, comprising 0.1% of SDS, at 37±0.5° C., and subjected to stirring at 50 revolutions per minute (rpm) (speed of rotation of the paddles of the dissolution device). The dissolution of the active ingredient in the medium can be monitored by spectrophotometry, preferably at the maximum wavelength of absorbance. A gastric pH is typically a pH of 1 to 3.
For each solid dispersion obtained by means of the “solvent evaporation” method (§1.b) above), hard gelatin capsules containing an amount of solid dispersion corresponding to 30 mg of UPA per capsule were prepared.
The dissolution profiles were obtained as follows:
Each capsule containing a solid dispersion was placed in a bowl of the paddle dissolution device containing 900 ml of a dissolution medium. The dissolution medium is an aqueous solution buffered at gastric pH and comprising 0.1% by weight of SDS. The conditions for carrying out the in vitro dissolutions are the following: • Paddle rotation speed: 50 revolutions per minute (rpm); • Temperature: 37° C.±0.5° C.
The dissolution of the UPA was monitored by spectrophotometry.
By way of control experiment, a gelatin capsule containing 30 mg of micronized ulipristal acetate was used. For each solid dispersion evaluated, the dissolution experiment was reproduced 3 times.

Data set [2] deals with uterine fibromas. Particulars: chronic administration, 5 mg or 10 mg per day; cited from earlier work.
The conditions of data set [3]: single dose of 30 mg, within 120 hours following unprotected or poorly protected sexual intercourse; cited from earlier work.

Take `CC(=O)O[C@]1(C(C)=O)CCC2C3CCC4=CC(=O)CCC4=C3[C@@H](c3ccc(N(C)C)cc3)C[C@@]21C` (stereo partly drawn) [Micronized UPA, 17α-acetoxy-11β-[4-(N,N-dimethylamino)phenyl]-19-norpregna-4,9-diene-3,20-dione]: the “percentage of ulipristal acetate released into the medium” value in data set [1] (t=20 min as stated in the text, capsule) is “approximately 42%”. In addition, the “Percentages of UPA released, expressed relative to the initial amount of UPA contained per capsule” value in data set [1] (time 0 min) worked out at 0%; in data set [1] (time 1 min), 0.23%; in data set [1] (time 5 min), 5.69%; in data set [1] (time 7.5 min), 15.28%; in data set [1] (time 10 min) it was 21.73%; in data set [1] (time 15 min), 29.46%. Further, the “Percentages of UPA released, expressed relative to the initial amount of UPA contained per capsule” value in data set [1] (time 20 min) came out at 35.2%; in data set [1] (time 30 min) it was 42.14%; in data set [1] (time 45 min) it was 49.98%; in data set [1] (time 60 min) it was 55.62%. In addition, in data set [2], the “symptoms associated with uterine fibromas” value was “significantly reduce the symptoms associated with uterine fibromas”. Moreover, in data set [2], the “therapeutic benefit versus the reference treatment leuprolide acetate” value is “greater than that of the reference treatment”. Also, the “prevention of unwanted pregnancy” value in data set [3] was “makes it possible to prevent an unwanted pregnancy”.
